The structures appear in SMILES notation. Where a name gives a salt, the structure may show the parent alone. Read-outs that look alike come from different tables or passages of the source.

In one test the test system is NIH-3T3 cells. Put plainly: qHTS cell viability (CellTiter-Glo, 72 h; primary screen), control cell line. Format: cell-based, mouse.
In the next test the test system is MCC26 cells (VN-MCC). Put plainly: qHTS cell viability (CellTiter-Glo, 72 h; primary and follow-up small molecule screen). Format: cell-based, human. In general terms: Quantitative high-throughput screening tests each substance at several concentrations.
In the next test the test system is WAGA cells (VP-MCC). The description is as above. The test is classed as cell-based, human.
For a further test, the system named is MKL-1 cells (VP-MCC). The description is as above. Format: cell-based, human.
A further test concerns MCC13 cells (VN-MCC). The test is described as above. The test is classed as cell-based, human.
The next test deals with CRL-7250 cells. The experiment in a line: qHTS cell viability (CellTiter-Glo, 72 h; primary screen), control cell line. Format: cell-based.
In another test the test system is UISO cells (VN-MCC). Put plainly: qHTS cell viability (CellTiter-Glo, 72 h; primary and follow-up small molecule screen). The test is classed as cell-based, human.
A further test relates to HEK293T cells. The experiment in a line: qHTS cell viability (CellTiter-Glo, 72 h; primary screen), control cell line. The test is classed as cell-based, human.
The subject of the next test is HACAT cells. Described as above. Format: cell-based, human.
The subject of another test is MKL-2 cells (VP-MCC). Put plainly: qHTS cell viability (CellTiter-Glo, 72 h; primary and follow-up small molecule screen). Format: cell-based, human.
Setting [1] is: area under the dose-response curve, NIH3T3 control cells, AUC<450 = reduced viability.
The mark [2] stands for this setting: area under the dose-response curve, MCC26 cells, AUC<450 = reduced viability.
[3] abbreviates: area under the dose-response curve, WAGA cells, AUC<450 = reduced viability.
Setting [4] is: area under the dose-response curve, MKL-1 cells, AUC<450 = reduced viability.
Where [5] appears, read: area under the dose-response curve, MCC13 cells, AUC<450 = reduced viability.
[6] abbreviates: area under the dose-response curve, CRL7250 control cells, AUC<450 = reduced viability.
The mark [7] stands for this setting: area under the dose-response curve, UISO cells, AUC<450 = reduced viability.
The mark [8] stands for this setting: area under the dose-response curve, HEK293T control cells, AUC<450 = reduced viability.
The mark [9] stands for this setting: area under the dose-response curve, HACAT control cells, AUC<450 = reduced viability.
Setting [10] is: area under the dose-response curve, MKL-2 cells, AUC<450 = reduced viability.

For the compound `C[C@H](CCC(=O)O)[C@H]1CC[C@H]2[C@@H]3[C@H](O)C[C@@H]4C[C@H](O)CC[C@]4(C)[C@H]3CC[C@]12C` [Chenodeoxycholic acid], the NIH3T3_AUC with NIH-3T3 cells (setting [1]) is reported as 479.384. The compound further came in with an MCC26_AUC in the test on MCC26 cells (VN-MCC) (setting [2]) of 489.842. Besides, the WAGA_AUC with WAGA cells (VP-MCC) (setting [3]) was 440.562. The compound further returned an MKL1_AUC with MKL-1 cells (VP-MCC) (setting [4]) of 439.87. Further, the MCC13_AUC in the test with MCC13 cells (VN-MCC) (setting [5]) came to 458.762. The CRL7250_AUC in the test with CRL-7250 cells (setting [6]) was found to be 462.86. For the same compound, the UISO_AUC in the test with UISO cells (VN-MCC) (setting [7]) is listed as 483.595. Besides, the HEK293T_AUC with HEK293T cells (setting [8]) was 474.014. For the same compound, the HACAT_AUC in the test on HACAT cells (setting [9]) was found to be 475.403. The compound further gave an MKL2_AUC in the test with MKL-2 cells (VP-MCC) (setting [10]) of 427.388.

In the test on NIH-3T3 cells, `O=c1cccc2n1C[C@@H]1CNC[C@H]2C1` [Cytisine] registered an NIH3T3_AUC of 477.468. For the same compound, in the test with MCC26 cells (VN-MCC), the “Area under the dose-response curve (AUC) MCC26 Replicate 1” value is reported as 425.8, the “Area under the dose-response curve (AUC) MCC26 Replicate 2” value stood at 426.1, the “Area under the dose-response curve (AUC) MCC26 Replicate 3” value is reported as 461.0 and the MCC26_AUC is reported as 479.664. Besides, in the test on WAGA cells (VP-MCC), the “Area under the dose-response curve (AUC) WAGA Replicate 1” value was 496.1, the “Area under the dose-response curve (AUC) WAGA Replicate 2” value is 525.9, the “Area under the dose-response curve (AUC) WAGA Replicate 3” value was determined as 499.6 and the WAGA_AUC worked out at 346.525. Besides, in the test on MKL-1 cells (VP-MCC), the “Area under the dose-response curve (AUC) MKL-1 Replicate 1” value is recorded as 469.7, the “Area under the dose-response curve (AUC) MKL-1 Replicate 2” value is on record as 497.8, the “Area under the dose-response curve (AUC) MKL-1 Replicate 3” value is given as 481.7 and the MKL1_AUC is recorded as 435.746. In addition, in the test with MCC13 cells (VN-MCC), the “Area under the dose-response curve (AUC) MCC13 Replicate 1” value is 466.2, the “Area under the dose-response curve (AUC) MCC13 Replicate 2” value is 472.1, the “Area under the dose-response curve (AUC) MCC13 Replicate 3” value is on record as 495.9 and the MCC13_AUC was found to be 474.327. Further, the CRL7250_AUC with CRL-7250 cells was determined as 469.524. In the test with UISO cells (VN-MCC), the “Area under the dose-response curve (AUC) UISO Replicate 1” value was 456.3, the “Area under the dose-response curve (AUC) UISO Replicate 2” value is listed as 469.0, the “Area under the dose-response curve (AUC) UISO Replicate 3” value came to 502.6 and the UISO_AUC came out at 498.318. In the test on HEK293T cells, this compound had an HEK293T_AUC of 476.432. For the same compound, the HACAT_AUC in the test with HACAT cells stood at 465.853. In addition, in the test on MKL-2 cells (VP-MCC), the “Area under the dose-response curve (AUC) MKL-2 Replicate 1” value is reported as 465.6, the “Area under the dose-response curve (AUC) MKL-2 Replicate 2” value amounted to 500.2, the “Area under the dose-response curve (AUC) MKL-2 Replicate 3” value is given as 495.6 and the MKL2_AUC came out at 398.634.

As for `CC(C)CN(C[C@@H](O)[C@H](Cc1ccccc1)NC(=O)O[C@H]1CO[C@H]2OCC[C@H]21)S(=O)(=O)c1ccc(N)cc1` [Darunavir], the NIH3T3_AUC in the test on NIH-3T3 cells is on record as 481.353. Moreover, in the test on MCC26 cells (VN-MCC), the MCC26_AUC was 501.486. In the test on WAGA cells (VP-MCC), the WAGA_AUC was found to be 433.192. Further, the MKL1_AUC in the test on MKL-1 cells (VP-MCC) stood at 420.268. For the same compound, the MCC13_AUC with MCC13 cells (VN-MCC) is given as 471.675. Further, in the test with CRL-7250 cells, the CRL7250_AUC was 469.055. The same compound showed a UISO_AUC with UISO cells (VN-MCC) of 505.158. For the same compound, the HEK293T_AUC in the test on HEK293T cells is 472.283. The HACAT_AUC in the test with HACAT cells is recorded as 465.16. The compound also showed an MKL2_AUC with MKL-2 cells (VP-MCC) of 413.603.

As to `CCCCCCCCCCCC1=C(O)C(=O)C=C(O)C1=O` [Embelin], the NIH3T3_AUC in the test with NIH-3T3 cells (setting [1]) was 468.399. This compound also gave an MCC26_AUC in the test on MCC26 cells (VN-MCC) (setting [2]) of 492.758. Also, the “Area under the dose-response curve (AUC) MCC26 Replicate 1” value in the test on MCC26 cells (VN-MCC) (follow-up screen, MCC26, replicate 1) came out at 439.2. In the test on MCC26 cells (VN-MCC) (follow-up screen, MCC26, replicate 2), the “Area under the dose-response curve (AUC) MCC26 Replicate 2” value was determined as 416.6. In addition, the “Area under the dose-response curve (AUC) MCC26 Replicate 3” value with MCC26 cells (VN-MCC) (follow-up screen, MCC26, replicate 3) was determined as 455.7. Besides, in the test on WAGA cells (VP-MCC) (setting [3]), the WAGA_AUC is recorded as 416.987. In addition, in the test on WAGA cells (VP-MCC) (follow-up screen, WAGA, replicate 1), the “Area under the dose-response curve (AUC) WAGA Replicate 1” value is recorded as 543.3. Further, the “Area under the dose-response curve (AUC) WAGA Replicate 2” value in the test on WAGA cells (VP-MCC) (follow-up screen, WAGA, replicate 2) worked out at 384.9. Besides, in the test with WAGA cells (VP-MCC) (follow-up screen, WAGA, replicate 3), the “Area under the dose-response curve (AUC) WAGA Replicate 3” value was 441.0. The compound also yielded an MKL1_AUC in the test on MKL-1 cells (VP-MCC) (setting [4]) of 418.887. Also, the “Area under the dose-response curve (AUC) MKL-1 Replicate 1” value with MKL-1 cells (VP-MCC) (follow-up screen, MKL-1, replicate 1) is 561.5. In addition, in the test on MKL-1 cells (VP-MCC) (follow-up screen, MKL-1, replicate 2), the “Area under the dose-response curve (AUC) MKL-1 Replicate 2” value is on record as 475.0. The “Area under the dose-response curve (AUC) MKL-1 Replicate 3” value with MKL-1 cells (VP-MCC) (follow-up screen, MKL-1, replicate 3) came to 443.8. This compound showed an MCC13_AUC in the test with MCC13 cells (VN-MCC) (setting [5]) of 489.799. In addition, the “Area under the dose-response curve (AUC) MCC13 Replicate 1” value in the test on MCC13 cells (VN-MCC) (follow-up screen, MCC13, replicate 1) was found to be 496.2. For the same compound, the “Area under the dose-response curve (AUC) MCC13 Replicate 2” value in the test on MCC13 cells (VN-MCC) (follow-up screen, MCC13, replicate 2) turned out to be 470.6. For the same compound, the “Area under the dose-response curve (AUC) MCC13 Replicate 3” value in the test with MCC13 cells (VN-MCC) (follow-up screen, MCC13, replicate 3) was 448.5. The CRL7250_AUC in the test with CRL-7250 cells (setting [6]) is reported as 461.338. In addition, the UISO_AUC in the test on UISO cells (VN-MCC) (setting [7]) was 474.744. For the same compound, in the test on UISO cells (VN-MCC) (follow-up screen, UISO, replicate 1), the “Area under the dose-response curve (AUC) UISO Replicate 1” value was 471.2. Besides, in the test with UISO cells (VN-MCC) (follow-up screen, UISO, replicate 2), the “Area under the dose-response curve (AUC) UISO Replicate 2” value worked out at 418.0. Also, in the test on UISO cells (VN-MCC) (follow-up screen, UISO, replicate 3), the “Area under the dose-response curve (AUC) UISO Replicate 3” value is listed as 438.8. In the test on HEK293T cells (setting [8]), this compound came in with an HEK293T_AUC of 470.759. In addition, the HACAT_AUC in the test on HACAT cells (setting [9]) amounted to 451.959. The compound further gave an MKL2_AUC in the test on MKL-2 cells (VP-MCC) (setting [10]) of 427.936. Moreover, in the test with MKL-2 cells (VP-MCC) (follow-up screen, MKL-2, replicate 1), the “Area under the dose-response curve (AUC) MKL-2 Replicate 1” value is 476.0. Moreover, in the test on MKL-2 cells (VP-MCC) (follow-up screen, MKL-2, replicate 2), the “Area under the dose-response curve (AUC) MKL-2 Replicate 2” value is reported as 454.8. In addition, the “Area under the dose-response curve (AUC) MKL-2 Replicate 3” value in the test on MKL-2 cells (VP-MCC) (follow-up screen, MKL-2, replicate 3) was 454.5.

In the case of `CCOC(=O)[C@H](CCc1ccccc1)N[C@@H](C)C(=O)N1CCC[C@H]1C(=O)O` [Enalapril maleate], the NIH3T3_AUC in the test on NIH-3T3 cells (setting [1]) was 481.903. Also, in the test with MCC26 cells (VN-MCC) (setting [2]), the MCC26_AUC stood at 486.615. Moreover, the WAGA_AUC in the test with WAGA cells (VP-MCC) (setting [3]) worked out at 389.514. This compound came in with an MKL1_AUC with MKL-1 cells (VP-MCC) (setting [4]) of 398.754. This compound displayed an MCC13_AUC in the test on MCC13 cells (VN-MCC) (setting [5]) of 497.832. In the test on CRL-7250 cells (setting [6]), this compound came in with a CRL7250_AUC of 468.406. Further, in the test on UISO cells (VN-MCC) (setting [7]), the UISO_AUC was found to be 510.45. For the same compound, in the test with HEK293T cells (setting [8]), the HEK293T_AUC came to 479.159. The compound further showed an HACAT_AUC with HACAT cells (setting [9]) of 461.773. In the test with MKL-2 cells (VP-MCC) (setting [10]), this compound gave an MKL2_AUC of 341.505.

The values are drawn from PMC11822212, “High-throughput screening identifies Aurora kinase B as a critical therapeutic target for Merkel cell carcinoma” (Nature Communications, 2025).
